Key:
[1] = tested on: Tyrosine-protein kinase ABL1 (Homo sapiens), P00519 [F317I]; conditions: Compound concentration 100.0 nM
[2] = tested on: Tyrosine-protein kinase ABL1 (Homo sapiens), P00519 [T315I]; conditions: Compound concentration 100.0 nM
[3] = target: Ankyrin repeat and protein kinase domain-containing protein 1 (Homo sapiens) (UniProt Q8NFD2); conditions: Compound concentration 100.0 nM
[4] = target: Tyrosine-protein kinase Blk (Homo sapiens) (UniProt P51451); conditions: Compound concentration 100.0 nM
[5] = target: Bone morphogenetic protein receptor type-2 (Homo sapiens) (UniProt Q13873); conditions: Compound concentration 100.0 nM
[6] = target: Calcium/calmodulin-dependent protein kinase type II subunit gamma (Homo sapiens) (UniProt Q13555); conditions: Compound concentration 100.0 nM
[7] = target: Cyclin-dependent kinase 19 (Homo sapiens) (UniProt Q9BWU1); conditions: Compound concentration 100.0 nM
[8] = target: Dual specificity protein kinase CLK4 (Homo sapiens) (UniProt Q9HAZ1); conditions: Compound concentration 100.0 nM
[9] = target: Macrophage colony-stimulating factor 1 receptor (Homo sapiens) (UniProt P07333); conditions: Compound concentration 100.0 nM
[10] = target: Casein kinase I isoform delta (Homo sapiens) (UniProt P48730); conditions: Compound concentration 100.0 nM
[11] = target: Casein kinase I isoform gamma-2 (Homo sapiens) (UniProt P78368); conditions: Compound concentration 100.0 nM
[12] = target: Serine/threonine-protein kinase MRCK gamma (Homo sapiens) (UniProt Q6DT37); conditions: Compound concentration 100.0 nM
[13] = target: Serine/threonine-protein kinase 17A (Homo sapiens) (UniProt Q9UEE5); conditions: Compound concentration 100.0 nM
[14] = target: Ephrin type-B receptor 1 (Homo sapiens) (UniProt P54762); conditions: Compound concentration 100.0 nM
[15] = target: Mitogen-activated protein kinase 3 (Homo sapiens) (UniProt P27361); conditions: Compound concentration 100.0 nM
[16] = target: Mitogen-activated protein kinase 1 (Homo sapiens) (UniProt P28482); conditions: Compound concentration 100.0 nM
[17] = target: Receptor-type tyrosine-protein kinase FLT3 (Homo sapiens) (UniProt P36888); conditions: Compound concentration 100.0 nM
[18] = tested on: Receptor-type tyrosine-protein kinase FLT3 (Homo sapiens), P36888 [UNDEFINED MUTATION]; conditions: Compound concentration 100.0 nM
[19] = target: Vascular endothelial growth factor receptor 3 (Homo sapiens) (UniProt P35916); conditions: Compound concentration 100.0 nM
[20] = target: Tyrosine-protein kinase JAK1 (Homo sapiens) (UniProt P23458); conditions: Compound concentration 100.0 nM
[21] = target: Tyrosine-protein kinase Lck (Homo sapiens) (UniProt P06239); conditions: Compound concentration 100.0 nM
[22] = target: Leucine-rich repeat serine/threonine-protein kinase 2 (Homo sapiens) (UniProt Q5S007); conditions: Compound concentration 100.0 nM
[23] = target: Mitogen-activated protein kinase kinase kinase 15 (Homo sapiens) (UniProt Q6ZN16); conditions: Compound concentration 100.0 nM
[24] = target: Dual specificity mitogen-activated protein kinase kinase 3 (Homo sapiens) (UniProt P46734); conditions: Compound concentration 100.0 nM
[25] = target: Dual specificity mitogen-activated protein kinase kinase 7 (Homo sapiens) (UniProt O14733); conditions: Compound concentration 100.0 nM
[26] = target: Serine/threonine-protein kinase MRCK alpha (Homo sapiens) (UniProt Q5VT25); conditions: Compound concentration 100.0 nM
[27] = target: Serine/threonine-protein kinase 26 (Homo sapiens) (UniProt Q9P289); conditions: Compound concentration 100.0 nM
[28] = target: Serine/threonine-protein kinase NLK (Homo sapiens) (UniProt Q9UBE8); conditions: Compound concentration 100.0 nM
[29] = target: Serine/threonine-protein kinase OSR1 (Homo sapiens) (UniProt O95747); conditions: Compound concentration 100.0 nM
[30] = target: 3-phosphoinositide-dependent protein kinase 1 (Homo sapiens) (UniProt O15530); conditions: Compound concentration 100.0 nM
[31] = target: Cyclin-dependent kinase 2 homolog (Plasmodium falciparum (isolate 3D7)) (UniProt P61075); conditions: Compound concentration 100.0 nM
[32] = target: Serine/threonine-protein kinase pim-2 (Homo sapiens) (UniProt Q9P1W9); conditions: Compound concentration 100.0 nM
[33] = target: cAMP-dependent protein kinase catalytic subunit beta (Homo sapiens) (UniProt P22694); conditions: Compound concentration 100.0 nM
[34] = target: Serine/threonine-protein kinase N1 (Homo sapiens) (UniProt Q16512); conditions: Compound concentration 100.0 nM
[35] = target: Interferon-induced, double-stranded RNA-activated protein kinase (Homo sapiens) (UniProt P19525); conditions: Compound concentration 100.0 nM
[36] = target: Serine/threonine-protein kinase PRP4 homolog (Homo sapiens) (UniProt Q13523); conditions: Compound concentration 100.0 nM
[37] = target: Receptor-interacting serine/threonine-protein kinase 1 (Homo sapiens) (UniProt Q13546); conditions: Compound concentration 100.0 nM
[38] = target: Dual serine/threonine and tyrosine protein kinase (Homo sapiens) (UniProt Q6XUX3); conditions: Compound concentration 100.0 nM
[39] = target: STE20/SPS1-related proline-alanine-rich protein kinase (Homo sapiens) (UniProt Q9UEW8); conditions: Compound concentration 100.0 nM
[40] = target: TGF-beta receptor type-1 (Homo sapiens) (UniProt P36897); conditions: Compound concentration 100.0 nM
[41] = target: Serine/threonine-protein kinase tousled-like 1 (Homo sapiens) (UniProt Q9UKI8); conditions: Compound concentration 100.0 nM
[42] = target: Serine/threonine-protein kinase tousled-like 2 (Homo sapiens) (UniProt Q86UE8); conditions: Compound concentration 100.0 nM
[43] = target: Serine/threonine-protein kinase WNK3 (Homo sapiens) (UniProt Q9BYP7); conditions: Compound concentration 100.0 nM
[44] = target: 5-hydroxytryptamine receptor 1A (Homo sapiens) (UniProt P08908); conditions: Compound concentration 10.0 uM
Rattus norvegicus = organism: Rattus norvegicus; conditions: Compound concentration 10.0 uM

Serine/threonine-protein kinase 17A (Homo sapiens), sequence (Q9UEE5 whole entry): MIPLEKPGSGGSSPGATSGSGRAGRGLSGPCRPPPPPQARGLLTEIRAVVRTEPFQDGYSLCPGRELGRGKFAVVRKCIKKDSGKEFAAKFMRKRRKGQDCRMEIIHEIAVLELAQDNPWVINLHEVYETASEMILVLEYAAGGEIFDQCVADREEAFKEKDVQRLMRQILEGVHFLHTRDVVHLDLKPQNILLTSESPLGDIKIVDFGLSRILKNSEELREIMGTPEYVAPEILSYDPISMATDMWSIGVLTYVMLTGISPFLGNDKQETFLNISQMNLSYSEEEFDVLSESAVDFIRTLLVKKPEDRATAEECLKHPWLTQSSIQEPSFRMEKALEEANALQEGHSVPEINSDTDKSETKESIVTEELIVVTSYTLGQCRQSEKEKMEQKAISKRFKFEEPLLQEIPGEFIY
Dual specificity protein kinase CLK4 (Homo sapiens), sequence (Q9HAZ1 whole entry, looked up): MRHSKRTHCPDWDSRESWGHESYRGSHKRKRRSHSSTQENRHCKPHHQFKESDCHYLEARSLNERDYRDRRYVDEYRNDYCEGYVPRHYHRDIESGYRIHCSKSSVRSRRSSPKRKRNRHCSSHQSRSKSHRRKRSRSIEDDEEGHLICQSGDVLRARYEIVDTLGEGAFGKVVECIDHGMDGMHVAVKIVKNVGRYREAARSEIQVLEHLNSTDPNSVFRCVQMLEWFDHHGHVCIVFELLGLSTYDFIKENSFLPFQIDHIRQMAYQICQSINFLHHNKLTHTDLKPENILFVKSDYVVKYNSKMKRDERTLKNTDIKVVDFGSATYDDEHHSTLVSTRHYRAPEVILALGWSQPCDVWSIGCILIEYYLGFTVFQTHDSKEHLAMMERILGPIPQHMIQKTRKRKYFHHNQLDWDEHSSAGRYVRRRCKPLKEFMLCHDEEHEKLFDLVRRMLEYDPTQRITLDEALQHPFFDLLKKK
Tyrosine-protein kinase JAK1 (Homo sapiens), sequence (P23458 whole entry): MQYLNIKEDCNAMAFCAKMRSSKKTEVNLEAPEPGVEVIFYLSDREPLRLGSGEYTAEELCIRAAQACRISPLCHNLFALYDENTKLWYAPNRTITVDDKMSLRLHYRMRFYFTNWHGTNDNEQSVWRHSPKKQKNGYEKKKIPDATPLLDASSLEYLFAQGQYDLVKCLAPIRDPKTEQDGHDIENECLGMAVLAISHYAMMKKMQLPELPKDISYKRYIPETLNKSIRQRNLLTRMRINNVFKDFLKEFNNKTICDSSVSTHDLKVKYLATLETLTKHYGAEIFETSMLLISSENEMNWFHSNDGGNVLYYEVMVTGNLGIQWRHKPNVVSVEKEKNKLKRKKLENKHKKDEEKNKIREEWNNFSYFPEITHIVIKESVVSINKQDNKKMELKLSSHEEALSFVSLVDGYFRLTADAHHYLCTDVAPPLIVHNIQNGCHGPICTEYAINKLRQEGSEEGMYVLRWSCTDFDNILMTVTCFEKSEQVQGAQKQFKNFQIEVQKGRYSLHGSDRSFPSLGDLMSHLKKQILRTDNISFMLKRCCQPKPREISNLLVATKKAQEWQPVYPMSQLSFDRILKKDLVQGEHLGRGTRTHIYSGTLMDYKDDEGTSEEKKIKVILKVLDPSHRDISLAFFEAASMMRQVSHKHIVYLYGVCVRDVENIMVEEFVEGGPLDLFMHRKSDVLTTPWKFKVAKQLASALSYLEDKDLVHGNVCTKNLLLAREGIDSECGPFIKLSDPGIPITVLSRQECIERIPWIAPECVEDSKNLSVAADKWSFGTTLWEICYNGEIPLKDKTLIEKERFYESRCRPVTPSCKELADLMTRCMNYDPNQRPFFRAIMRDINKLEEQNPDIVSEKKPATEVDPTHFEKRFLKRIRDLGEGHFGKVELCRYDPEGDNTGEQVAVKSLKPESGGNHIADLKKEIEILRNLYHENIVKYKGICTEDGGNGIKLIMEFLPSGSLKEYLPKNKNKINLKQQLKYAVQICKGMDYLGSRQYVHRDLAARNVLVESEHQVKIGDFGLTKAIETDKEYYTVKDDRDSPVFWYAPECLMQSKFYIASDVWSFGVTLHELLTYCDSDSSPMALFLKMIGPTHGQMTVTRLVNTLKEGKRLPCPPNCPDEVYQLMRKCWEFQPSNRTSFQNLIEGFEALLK
Leucine-rich repeat serine/threonine-protein kinase 2 (Homo sapiens), sequence (Q5S007 whole entry): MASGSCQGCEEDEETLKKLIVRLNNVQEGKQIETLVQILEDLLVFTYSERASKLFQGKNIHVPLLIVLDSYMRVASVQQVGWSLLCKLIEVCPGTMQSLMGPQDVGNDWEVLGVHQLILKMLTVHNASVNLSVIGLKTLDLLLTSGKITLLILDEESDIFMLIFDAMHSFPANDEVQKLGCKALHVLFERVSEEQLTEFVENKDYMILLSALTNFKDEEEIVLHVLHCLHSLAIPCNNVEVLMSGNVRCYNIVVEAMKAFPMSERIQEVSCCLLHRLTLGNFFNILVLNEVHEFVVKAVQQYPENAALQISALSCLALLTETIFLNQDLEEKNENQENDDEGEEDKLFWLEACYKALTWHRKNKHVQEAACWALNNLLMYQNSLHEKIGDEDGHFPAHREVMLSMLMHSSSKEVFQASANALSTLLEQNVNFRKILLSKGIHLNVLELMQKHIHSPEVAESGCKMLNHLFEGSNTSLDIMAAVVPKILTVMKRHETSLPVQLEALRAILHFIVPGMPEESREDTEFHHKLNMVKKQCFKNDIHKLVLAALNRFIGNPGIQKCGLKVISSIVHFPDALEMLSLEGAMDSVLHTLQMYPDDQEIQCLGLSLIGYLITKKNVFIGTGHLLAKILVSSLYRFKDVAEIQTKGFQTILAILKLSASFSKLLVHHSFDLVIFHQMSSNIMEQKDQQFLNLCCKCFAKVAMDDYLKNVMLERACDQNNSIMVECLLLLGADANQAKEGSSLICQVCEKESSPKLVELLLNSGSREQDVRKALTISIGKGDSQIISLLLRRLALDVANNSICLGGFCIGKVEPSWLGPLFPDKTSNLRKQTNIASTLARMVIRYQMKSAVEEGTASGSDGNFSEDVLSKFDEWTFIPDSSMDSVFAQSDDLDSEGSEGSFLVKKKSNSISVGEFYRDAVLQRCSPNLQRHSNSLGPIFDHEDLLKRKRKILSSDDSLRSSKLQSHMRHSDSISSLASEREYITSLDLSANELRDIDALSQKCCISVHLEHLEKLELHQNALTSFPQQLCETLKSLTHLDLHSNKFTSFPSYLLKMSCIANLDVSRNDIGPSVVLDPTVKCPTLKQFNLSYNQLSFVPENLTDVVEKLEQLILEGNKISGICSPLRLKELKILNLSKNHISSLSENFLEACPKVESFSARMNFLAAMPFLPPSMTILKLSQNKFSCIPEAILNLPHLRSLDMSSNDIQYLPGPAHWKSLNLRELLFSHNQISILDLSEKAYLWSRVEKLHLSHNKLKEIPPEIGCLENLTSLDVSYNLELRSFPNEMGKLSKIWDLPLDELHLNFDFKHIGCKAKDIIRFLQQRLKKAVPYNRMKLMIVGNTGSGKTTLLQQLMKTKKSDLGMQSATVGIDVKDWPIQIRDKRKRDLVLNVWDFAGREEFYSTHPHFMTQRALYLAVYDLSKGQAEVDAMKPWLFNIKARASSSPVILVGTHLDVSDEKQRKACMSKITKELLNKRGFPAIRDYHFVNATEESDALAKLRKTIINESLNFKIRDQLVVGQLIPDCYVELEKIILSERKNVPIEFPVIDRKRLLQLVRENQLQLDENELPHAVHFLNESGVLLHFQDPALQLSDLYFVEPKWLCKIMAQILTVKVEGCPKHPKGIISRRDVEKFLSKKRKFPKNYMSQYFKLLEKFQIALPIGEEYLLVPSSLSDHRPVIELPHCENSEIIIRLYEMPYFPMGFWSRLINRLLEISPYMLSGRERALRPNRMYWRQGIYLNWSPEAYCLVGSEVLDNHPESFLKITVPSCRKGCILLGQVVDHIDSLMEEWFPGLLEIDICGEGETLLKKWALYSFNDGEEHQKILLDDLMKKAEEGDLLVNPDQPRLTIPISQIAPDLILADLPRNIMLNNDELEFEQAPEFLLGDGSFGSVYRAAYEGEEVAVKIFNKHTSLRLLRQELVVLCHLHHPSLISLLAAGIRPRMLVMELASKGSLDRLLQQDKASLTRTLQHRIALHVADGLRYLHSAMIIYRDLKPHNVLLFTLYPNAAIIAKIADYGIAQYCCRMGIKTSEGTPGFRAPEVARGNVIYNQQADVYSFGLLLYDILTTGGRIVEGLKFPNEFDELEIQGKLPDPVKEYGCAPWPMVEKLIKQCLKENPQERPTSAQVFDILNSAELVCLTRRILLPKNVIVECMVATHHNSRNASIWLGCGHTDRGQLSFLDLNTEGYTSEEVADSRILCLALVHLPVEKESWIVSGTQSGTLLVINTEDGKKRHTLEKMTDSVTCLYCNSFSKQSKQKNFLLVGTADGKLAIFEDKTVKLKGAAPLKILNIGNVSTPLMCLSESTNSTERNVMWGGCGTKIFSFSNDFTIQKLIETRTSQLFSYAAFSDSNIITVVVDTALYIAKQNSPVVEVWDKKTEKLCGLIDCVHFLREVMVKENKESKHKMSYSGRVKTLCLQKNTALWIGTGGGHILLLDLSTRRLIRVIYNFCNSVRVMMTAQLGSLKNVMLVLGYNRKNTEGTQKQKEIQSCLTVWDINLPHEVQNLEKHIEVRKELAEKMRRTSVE
Cyclin-dependent kinase 2 homolog (Plasmodium falciparum (isolate 3D7)), sequence (P61075 whole entry): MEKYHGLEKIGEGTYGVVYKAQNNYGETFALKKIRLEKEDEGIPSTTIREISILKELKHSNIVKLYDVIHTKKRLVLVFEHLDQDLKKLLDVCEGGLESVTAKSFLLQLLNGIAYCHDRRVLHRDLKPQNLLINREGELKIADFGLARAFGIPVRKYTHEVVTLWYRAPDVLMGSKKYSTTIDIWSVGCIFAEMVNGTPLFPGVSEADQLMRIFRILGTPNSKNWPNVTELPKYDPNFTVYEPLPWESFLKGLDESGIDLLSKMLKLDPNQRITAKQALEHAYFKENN

## Cc1ccc(-c2cnc([C@@]3(O)CC[C@H](C(=O)O)C(C)(C)C3)s2)cc1Nc1cccc(C(F)(F)F)n1 [MRL-SYKi-NC]
[1]
  residual activity: 80.1%
[2]
  residual activity: 100%
[3]
  residual activity: 93.5%
[4]
  residual activity: 100%
[5]
  residual activity: 54.9%
[6]
  residual activity: 88.2%
[7]
  residual activity: 95.3%
[8]
  residual activity: 65.2%
[9]
  residual activity: 100%
[10]
  residual activity: 92.5%
[11]
  residual activity: 100%
[12]
  residual activity: 100%
[13]
  residual activity: 96.7%
[14]
  residual activity: 98.7%
[15]
  residual activity: 100%
[16]
  residual activity: 100%
[17]
  residual activity: 100%
[18]
  residual activity: 100%
[19]
  residual activity: 100%
[20]
  residual activity: 100%
[21]
  residual activity: 100%
[22]
  residual activity: 87.4%
[23]
  residual activity: 85%
[24]
  residual activity: 90%
[25]
  residual activity: 77.8%
[26]
  residual activity: 100%
[27]
  residual activity: 100%
[28]
  residual activity: 100%
[29]
  residual activity: 69.9%
[30]
  residual activity: 95.5%
[31]
  residual activity: 33%
[32]
  residual activity: 87.9%
[33]
  residual activity: 71.5%
[34]
  residual activity: 100%
[35]
  residual activity: 75.8%
[36]
  residual activity: 82.6%
[37]
  residual activity: 95.9%
[38]
  residual activity: 100%
[39]
  residual activity: 100%
[40]
  residual activity: 83%
[41]
  residual activity: 100%
[42]
  residual activity: 89.9%
[43]
  residual activity: 0%
[44]
  inhibition: 17.5%
Rattus norvegicus
  inhibition: 71.8%

## Cc1cc(Nc2nccc(C)n2)cc(-c2cnc([C@@]3(O)CC[C@H](C(=O)O)C(C)(C)C3)s2)c1 [MRL-SYKi]
[1]
  residual activity: 100%
[2]
  residual activity: 100%
[3]
  residual activity: 100%
[4]
  residual activity: 74.6%
[5]
  residual activity: 100%
[6]
  residual activity: 95.2%
[7]
  residual activity: 85%
[8]
  residual activity: 90.9%
[9]
  residual activity: 100%
[10]
  residual activity: 100%
[11]
  residual activity: 94.5%
[12]
  residual activity: 93.6%
[13]
  residual activity: 99.6%
[14]
  residual activity: 100%
[15]
  residual activity: 98.9%
[16]
  residual activity: 100%
[17]
  residual activity: 94.2%
[18]
  residual activity: 84.8%
[19]
  residual activity: 91.3%
[20]
  residual activity: 100%
[21]
  residual activity: 73%
[22]
  residual activity: 87.1%
[23]
  residual activity: 80.5%
[24]
  residual activity: 29.5%
[25]
  residual activity: 90.3%
[26]
  residual activity: 86.2%
[27]
  residual activity: 100%
[28]
  residual activity: 73%
[29]
  residual activity: 79.9%
[30]
  residual activity: 86.5%
[31]
  residual activity: 100%
[32]
  residual activity: 100%
[33]
  residual activity: 100%
[34]
  residual activity: 96.9%
[35]
  residual activity: 77.4%
[36]
  residual activity: 90.3%
[37]
  residual activity: 87.1%
[38]
  residual activity: 100%
[39]
  residual activity: 81.8%
[40]
  residual activity: 68.4%
[41]
  residual activity: 100%
[42]
  residual activity: 100%
[43]
  residual activity: 100%
[44]
  inhibition: -0.0778%
Rattus norvegicus
  inhibition: 3.63%

Source: ChEMBL document CHEMBL4507285, “Data for DCP probe MRL-SYKi” (2021)
